Test results from PubChem BioAssay (NCI).
“And” between values parts separate entries of the source, which are not always exact repeats. Equal entries are not always repeated.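 Method: 48-hour compound exposure of cells in 96-well plates, five concentrations, linear interpolation of endpoints. Here, GI50 denotes the concentration required for 50% inhibition of growth. TGI is the concentration that stops growth completely.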

Assays:
Experiment in all cases: NCI tumour cell line growth inhibition, 48 h
M19-MEL melanoma = system: M19-MEL melanoma
DLD-1 colon = system: DLD-1 colon
DMS 273 small cell lung = system: DMS 273 small cell lung
DMS 114 small cell lung = system: DMS 114 small cell lung
SNB-78 CNS = system: SNB-78 CNS
XF 498 CNS = system: XF 498 CNS
LXFL 529 NSCLC = system: LXFL 529 NSCLC
RXF-631 renal = system: RXF-631 renal
P388 leukemia = system: P388 leukemia
SN12K1 renal = system: SN12K1 renal
P388/ADR leukemia = system: P388/ADR leukemia

| SMILES | TGI (M19-MEL melanoma) [µM] | TGI (DLD-1 colon) [µM] | TGI (DMS 273 small cell lung) [µM] | TGI (DMS 114 small cell lung) [µM] | TGI (SNB-78 CNS) [µM] | TGI (XF 498 CNS) [µM] | TGI (LXFL 529 NSCLC) [µM] | TGI (RXF-631 renal) [µM] | TGI (P388 leukemia) [µM] | TGI (SN12K1 renal) [µM] | GI50 (XF 498 CNS) | TGI (P388/ADR leukemia) [µM] |
| --- | --- | --- | --- | --- | --- | --- | --- | --- | --- | --- | --- | --- |
| Clc1ccc(C[P+](c2ccccc2)(c2ccccc2)c2ccccc2)cc1Cl | 5.32 | 21.5 | 7.58 | 5.95 | 42.8 | 3.24 | – | – | – | – | – | – |
| C/C(N=NS(=O)(=O)c1ccc([N+](=O)[O-])cc1)=C1\C=CC=CN1O | > 100 | > 100 | > 100 | > 100 | > 100 | > 100 | > 100 | – | – | – | – | – |
| C=C=CC(NC(=O)c1ccccc1)(C(=O)O)C(F)(F)F (centres undefined) | – | > 100 | > 100 | > 100 | > 100 | > 100 | > 100 | > 100 | – | – | – | – |
| O=C(O)/C=C/c1c[nH]c(=O)[nH]c1=O | > 500 | > 500 | > 500 | > 500 | > 500 | > 500 | – | – | > 500 | > 500 | > 500 µM and 151 µM | > 500 |
| CC12CCC(CC1)C(C)(C)O2 | 64.5 | 103 | 18.3 | 123 | 261 | 5.51 | – | – | 55.7 | 110 | – | 42.6 |
